Activity calls are given as the source filed them. The rule behind the calls is not given here.

Holding throughout (format): functional, cell-based
In assay [1] the test system is HeLa. Briefly: Antiproliferative activity against human HeLa cells assessed as inhibition of at 10 uM after 18 hrs by assay.
In assay [2] the test system is U2OS. The assay is described as follows: Cytotoxicity against human U2OS cells at 15 uM after 4 days by Alamar blue assay. In general terms: Resazurin is reduced to fluorescent resorufin, in cell work by metabolically active cells.
For assay [3], the system named is U2OS. Briefly: Potentiation of cisplatin-induced cytotoxicity in human U2OS cells at 15 uM after 4 days by Alamar blue assay.

`CS(=O)(=O)NC[C@@H](N)Cc1cc(I)c(Oc2ccc(O)cc2)c(I)c1`: in assay [1], the outcome was Active.
The same measure, in the same setting: the value for `COC(=O)N[C@H](CO)Cc1cc(I)c(Oc2ccc(O)cc2)c(I)c1` was “Active”.
`CNC(=O)Cc1cc(I)c(Oc2ccc(O)c(I)c2)c(I)c1`: the result in assay [2] was inactive. The outcome in assay [3] and in assay [1] was Active.
On to `CC(C)NC(=O)N[C@H](CO)Cc1cc(I)c(Oc2ccc(O)cc2)c(I)c1`, for which the result in assay [1] was Active.
Same read-out and setting: the value for `O=C(CCc1cc(I)c(Oc2ccc(O)cc2)c(I)c1)NCC1CCCO1` (configuration not stated) was “Active”.
Same read-out and setting: the value for `CNC(=O)CCc1cc(I)c(Oc2ccc(O)cc2)c(I)c1` was “Active”; that for `N[C@H](CNC(=O)N1CCOCC1)Cc1cc(I)c(Oc2ccc(O)cc2)c(I)c1` was “Active”; that for `O=C(Cc1cc(I)c(Oc2ccc(O)c(I)c2)c(I)c1)NS(=O)(=O)c1ccccc1` was “Active”.
Consider `CC(=O)NC[C@@H](N)Cc1cc(I)c(Oc2ccc(O)cc2)c(I)c1`, for which the outcome in assay [2] was inactive. The result in assay [3] and in assay [1] was Active.
As to `CCOCCNC(=O)CCc1cc(I)c(Oc2ccc(O)cc2)c(I)c1`, the result in assay [1] was Active.
In the case of `CC(=O)N[C@H](CO)Cc1cc(I)c(Oc2ccc(O)cc2)c(I)c1`, the result in assay [1] was Active.
As to `O=C(CCc1cc(I)c(Oc2ccc(O)cc2)c(I)c1)NCCO`, the result in assay [1] was Active.
The same measure, in the same setting: as for `CS(=O)(=O)NC(=O)Cc1cc(I)c(Oc2ccc(O)c(I)c2)c(I)c1`, the entry is “Active”; as for `CN(C)C(=O)Cc1cc(I)c(Oc2ccc(O)c(I)c2)c(I)c1`, “Active”.
For `O=C(Cc1cc(I)c(Oc2ccc(O)c(I)c2)c(I)c1)N1CCOCC1`, in assay [1], the outcome was Active.
In the case of `N[C@H](CO)Cc1cc(I)c(Oc2ccc(O)cc2)c(I)c1`, in assay [2], the outcome was inactive. For the same compound, the result in assay [3] and in assay [1] was Active.
Turning to `O=C(CCc1cc(I)c(Oc2ccc(O)cc2)c(I)c1)N1CCOCC1`, the result in assay [1] was Active.
For `CC(C)NC(=O)NC[C@@H](N)Cc1cc(I)c(Oc2ccc(O)cc2)c(I)c1`, the outcome in assay [2] was inactive. Moreover, the result in assay [3] and in assay [1] was Active.
On to `N[C@H](CNC(=O)CCN1CCOCC1)Cc1cc(I)c(Oc2ccc(O)cc2)c(I)c1`, for which the result in assay [1] was Active.

Source of the values: ChEMBL document CHEMBL2346566, “Small molecule inhibitors of PCNA/PIP-box interaction suppress translesion DNA synthesis” (Bioorg Med Chem, 2013).
